From patent US20150065343A1, “Acrylamide compounds for combating invertebrate pests” (priority 2012, published 2015)

Assays:
Format in all cases: in vivo
[1] = test system: Orchid thrips (dichromothrips corbetti); experiment: B.5 Orchid thrips floral-immersion test; conditions: 96 h, adult thrips, after 4 days, read-out: mortality in comparison with untreated controls
Procedure: B.5 Orchid thrips (dichromothrips corbetti)
Dichromothaps corbetti adults used for bioassay were obtained from a colony maintained continuously under laboratory conditions. For testing purposes, the test compound was diluted to a concentration of 500 ppm (wt compound: vol diluent) in a 1:1 mixture of acetone:water (vol:vol), plus 0.01% vol/vol Kinetic® surfactant.
Thrips potency of each compound was evaluated by using a floral-immersion technique. Plastic petri dishes were used as test arenas. All petals of individual, intact orchid flowers were dipped into treatment solution and allowed to dry. Treated flowers were placed into individual petri dishes along with 10-15 adult thrips. The petri dishes were then covered with lids. All test arenas were held under continuous light and a temperature of about 28° C. for duration of the assay. After 4 days, the numbers of live thrips were counted on each flower, and along inner walls of each petri dish. The level of thrips mortality was extrapolated from pre-treatment thrips numbers.

[2] = test system: Silverleaf whitefly (bernisia argentifolii); experiment: B.6 Silverleaf whitefly spray test on cotton plants; conditions: Bemisia argentifolii, 72 h, sprayed cotton plants, whitefly adults, 3 days after treatment, read-out: mortality in comparison with untreated controls
Source text: B.6 Silverleaf whitefly (bernisia argentifolii)
(§1) The active compounds were formulated in cyclohexanone as a 10,000 ppm solution supplied in tubes. The tubes were inserted into an automated electrostatic sprayer equipped with an atomizing nozzle and they served as stock solutions for which lower dilutions were made in 50% acetone:50% water (v/v). A nonionic surfactant (Kinetic®) was included in the solution at a volume of 0.01% (v/v).
Cotton plants at the cotyledon stage (one plant per pot) were sprayed by an automated electrostatic plant sprayer equipped with an atomizing spray nozzle. The plants were dried in the sprayer fume hood and then removed from the sprayer. Each pot was placed into a plastic cup and about 10 to 12 whitefly adults (approximately 3-5 days old) were introduced. The insects were collected using an aspirator and a nontoxic Tygon® tubing connected to a barrier pipette tip. The tip, containing the collected insects, was then gently inserted into the soil containing the treated plant, allowing insects to crawl out of the tip to reach the foliage for feeding. Cups were covered with a reusable screened lid. […] Mortality was assessed 3 days after treatment, compared to untreated control plants.

[3] = test system: Green peach aphid (Myzus persicae); experiment: B.3 Green peach aphid systemic test, artificial diet in 96-well plates; conditions: 72 h, adult aphids, 3 days, read-out: mortality in comparison with untreated controls
Source text: B.3 Green peach aphid (Myzus persicae)
For evaluating control of green peach aphid (Myzus persicae) through systemic means the test unit consisted of 96-well-microtiter plates containing liquid artificial diet under an artificial membrane.
The compounds were formulated using a solution containing 75% v/v water and 25% v/v DMSO. Different concentrations of formulated compounds were pipetted into the aphid diet, using a custom built pipetter, at two replications.
After application, 5-8 adult aphids were placed on the artificial membrane inside the microtiter plate wells. The aphids were then allowed to suck on the treated aphid diet and incubated at about 23+1° C. and about 50+5% relative humidity for 3 days. Aphid mortality and fecundity was then visually assessed.

[4] = test system: Boll weevil (Anthonomus grandis); experiment: B.10 Boll weevil microtiter plate test on insect diet with eggs; conditions: 120 h, sprayed onto insect diet at 20 μl, egg and larval mortality after 5 days, read-out: mortality in comparison with untreated controls
Procedure: B.10 Boll weevil (Anthonomus grandis)
For evaluating control of boll weevil (Anthonomus grandis) the test unit consisted of 24-well-microtiter plates containing an insect diet and 20-30 A. grandis eggs.
The compounds were formulated using a solution containing 75% v/v water and 25% v/v DMSO. Different concentrations of formulated compounds were sprayed onto the insect diet at 20 μl, using a custom built micro atomizer, at two replications.
After application, microtiter plates were incubated at about 23±1° C. and about 50±5% relative humidity for 5 days. Egg and larval mortality was then visually assessed.

[5] = test system: Southern armyworm (Spodoptera eridania); experiment: B.7 Southern armyworm spray test on lima bean plants; conditions: foliar, 96 h, sprayed lima bean foliage, armyworm larvae, 4 days after treatment, read-out: mortality in comparison with untreated controls
Procedure: B.7 Southern armyworm (Spodoptera eridania)
as §1
Lima bean plants (variety Sieva) were grown 2 plants to a pot and selected for treatment at the 1st true leaf stage. Test solutions were sprayed onto the foliage by an automated electrostatic plant sprayer equipped with an atomizing spray nozzle. The plants were dried in the sprayer fume hood and then removed from the sprayer. Each pot was placed into perforated plastic bags with a zip closure. About 10 to 11 armyworm larvae were placed into the bag and the bags zipped closed. Test plants were maintained in a growth room at about 25° C. and about 20-40% relative humidity for 4 days, avoiding direct exposure to fluorescent light (24 hour photoperiod) to prevent trapping of heat inside the bags. Mortality and reduced feeding were assessed 4 days after treatment, compared to untreated control plants.

[6] = test system: Vetch aphid (Megoura viciae); experiment: B.8 Vetch aphid test on broad bean leaf disks in 24-well plates; conditions: foliar, 120 h, sprayed onto leaf disks at 2.5 μl, adult aphids, 5 days, read-out: mortality in comparison with untreated controls
Procedure: B.8 Vetch aphid (Megoura viciae)
For evaluating control of vetch aphid (Megoura viciae) through contact or systemic means the test unit consisted of 24-well-microtiter plates containing broad bean leaf disks.
The compounds were formulated using a solution containing 75% v/v water and 25% v/v DMSO. Different concentrations of formulated compounds were sprayed onto the leaf disks at 2.5 μl, using a custom built micro atomizer, at two replications.
After application, the leaf disks were air-dried and 5-8 adult aphids placed on the leaf disks inside the microtiter plate wells. The aphids were then allowed to suck on the treated leaf disks and incubated at about 23±1° C. and about 50±5% relative humidity for 5 days. Aphid mortality and fecundity was then visually assessed.

[7] = test system: Tobacco budworm (Heliothis virescens); experiment: B.9 Tobacco budworm microtiter plate test on insect diet with eggs; conditions: 120 h, sprayed onto insect diet at 10 μl, egg and larval mortality after 5 days, read-out: mortality in comparison with untreated controls
Procedure: B.9 Tobacco budworm (Heliothis virescens) HELVI
For evaluating control of tobacco budworm (Heliothis virescens) the test unit consisted of 96-well-microtiter plates containing an insect diet and 15-25 H. virescens eggs.
The compounds were formulated using a solution containing 75% v/v water and 25% v/v DMSO. Different concentrations of formulated compounds were sprayed onto the insect diet at 10 μl, using a custom built micro atomizer, at two replications.
(§2) After application, microtiter plates were incubated at about 28±1° C. and about 80±5% relative humidity for 5 days. Egg and larval mortality was then visually assessed.

[8] = test system: Diamond back moth (Plutella xylostella); experiment: B.2 Diamond back moth leaf-dip test on Chinese cabbage; conditions: dipped Chinese cabbage leaves, mortality recorded 24, 72 and 120 hours after treatment, read-out: mortality in comparison with untreated controls
Procedure: B.2 Diamond back moth (Plutella xylostella)
Leaves of Chinese cabbage were dipped in test solution and air-dried. Treated leaves were placed in petri dished lined with moist filter paper. Mortality was recorded 24, 72, and 120 hours after treatment.

[9] = test system: Mediterranean fruitfly (Ceratitis capitata); experiment: B.4 Mediterranean fruitfly microtiter plate test on insect diet with eggs; conditions: 120 h, sprayed onto insect diet at 5 μl, egg and larval mortality after 5 days, read-out: mortality in comparison with untreated controls
Procedure: B.4 Mediterranean fruitfly (Ceratitis capitata)
For evaluating control of Mediterranean fruitfly (Ceratitis capitata) the test unit consisted of microtiter plates containing an insect diet and 50-80 C. capitate eggs.
The compounds were formulated using a solution containing 75% v/v water and 25% v/v DMSO. Different concentrations of formulated compounds were sprayed onto the insect diet at 5 μl, using a custom built micro atomizer, at two replications.
as §2

CNC(=O)N/N=C/c1sc(/C=C/C(=O)NC(c2cccc(C(F)(F)F)c2)C(F)(F)F)cc1C (centres unmarked) [Compound 1-1, (E)-3-[4-methyl-5-[(E)-(methylcarbamoylhydrazono)methyl]-2-thienyl]-N-[2,2,2-trifluoro-1-[3-(trifluoromethyl)phenyl]ethyl]prop-2-enamide]
≥ 75%: mortality at 500 ppm [1] | mortality at 300 ppm [2] | mortality at 2500 ppm [3] | mortality at 2500 ppm [4] | mortality at 300 ppm [5] | mortality at 2500 ppm [6] | mortality at 2500 ppm [7] | mortality at 500 ppm [8] | mortality at 2500 ppm [9]

Cc1cc(/C=C/C(=O)NC(c2cccc(C(F)(F)F)c2)C(F)(F)F)sc1C(=O)NC1CC1 (centres unmarked) [Compound 2-1, N-cyclopropyl-3-methyl-5-[(E)-3-oxo-3-[[2,2,2-trifluoro-1-[3-(trifluoromethyl)phenyl]-ethyl]amino]prop-1-enyl]thiophene-2-carboxamide]
≥ 75%: mortality at 500 ppm [1] | mortality at 2500 ppm [3] | mortality at 2500 ppm [4] | mortality at 300 ppm [5] | mortality at 2500 ppm [6] | mortality at 2500 ppm [7] | mortality at 500 ppm [8] | mortality at 2500 ppm [9]

CCN(Cc1sc(/C=C/C(=O)NC(c2cccc(C(F)(F)F)c2)C(F)(F)F)cc1C)C(=O)CS(C)(=O)=O (centres unmarked) [Compound 3-1, (E)-3-[5-[[Ethyl-(2-methylsulfonylacetyl)amino]methyl]-4-methyl-2-thienyl]-N-[2,2,2-trifluoro-1-[3-(trifluoromethyl)phenyl]ethyl]prop-2-enamide]
≥ 75%: mortality at 500 ppm [1] | mortality at 2500 ppm [3] | mortality at 2500 ppm [4] | mortality at 300 ppm [5]

CSCC(=O)NCc1sc(/C=C/C(=O)NC(c2cccc(C(F)(F)F)c2)C(F)(F)F)cc1C (centres unmarked) [Compound 3-6, (E)-3-[4-Methyl-5-[[(2-methylsulfanylacetyl)amino]methyl]-2-thienyl]-N-[2,2,2-trifluoro-1-[3-(trifluoromethyl)phenyl]ethyl]prop-2-enamide]
≥ 75%: mortality at 500 ppm [1] | mortality at 2500 ppm [3] | mortality at 2500 ppm [4]

Cc1sc(/C=C/C(=O)NC(c2cccc(C(F)(F)F)c2)C(F)(F)F)cc1C(=O)NC1CC1 (centres unmarked) [Compound 4-1, N-Cyclopropyl-2-methyl-5-[(E)-3-oxo-3-[[2,2,2-trifluoro-1-[3-(trifluoromethyl)phenyl]-ethyl]amino]prop-1-enyl]thiophene-3-carboxamide]
≥ 75%: mortality at 300 ppm [2] | mortality at 2500 ppm [3] | mortality at 2500 ppm [4] | mortality at 300 ppm [5] | mortality at 2500 ppm [9]
